Test results as given in PubChem BioAssay AID743319 (Broad Institute, 2014).
Calls of active or inactive are those of the source.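 How the source made its calls: active means fitted curve reaches 200% activation at or below the highest valid dose tested for that compound; inconclusive means flat fit between 30 and 70% activation, or unreliable fit; inactive means the rest.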

Each compound was assayed against Endoplasmic reticulum aminopeptidase 2 (Homo sapiens) (UniProt Q6P179) (assay: ERAP2 activation by compounds, dose response, selectivity assay for selective ERAP1 modulator project, biochemical, fluorescence plate reader, cherry-picked samples (AID 743319)). Details: recombinant ERAP2, Arg-AMC cleavage fluorescence, 1 h.
Sequence of Endoplasmic reticulum aminopeptidase 2 (Homo sapiens) (Q6P179 whole entry, looked up): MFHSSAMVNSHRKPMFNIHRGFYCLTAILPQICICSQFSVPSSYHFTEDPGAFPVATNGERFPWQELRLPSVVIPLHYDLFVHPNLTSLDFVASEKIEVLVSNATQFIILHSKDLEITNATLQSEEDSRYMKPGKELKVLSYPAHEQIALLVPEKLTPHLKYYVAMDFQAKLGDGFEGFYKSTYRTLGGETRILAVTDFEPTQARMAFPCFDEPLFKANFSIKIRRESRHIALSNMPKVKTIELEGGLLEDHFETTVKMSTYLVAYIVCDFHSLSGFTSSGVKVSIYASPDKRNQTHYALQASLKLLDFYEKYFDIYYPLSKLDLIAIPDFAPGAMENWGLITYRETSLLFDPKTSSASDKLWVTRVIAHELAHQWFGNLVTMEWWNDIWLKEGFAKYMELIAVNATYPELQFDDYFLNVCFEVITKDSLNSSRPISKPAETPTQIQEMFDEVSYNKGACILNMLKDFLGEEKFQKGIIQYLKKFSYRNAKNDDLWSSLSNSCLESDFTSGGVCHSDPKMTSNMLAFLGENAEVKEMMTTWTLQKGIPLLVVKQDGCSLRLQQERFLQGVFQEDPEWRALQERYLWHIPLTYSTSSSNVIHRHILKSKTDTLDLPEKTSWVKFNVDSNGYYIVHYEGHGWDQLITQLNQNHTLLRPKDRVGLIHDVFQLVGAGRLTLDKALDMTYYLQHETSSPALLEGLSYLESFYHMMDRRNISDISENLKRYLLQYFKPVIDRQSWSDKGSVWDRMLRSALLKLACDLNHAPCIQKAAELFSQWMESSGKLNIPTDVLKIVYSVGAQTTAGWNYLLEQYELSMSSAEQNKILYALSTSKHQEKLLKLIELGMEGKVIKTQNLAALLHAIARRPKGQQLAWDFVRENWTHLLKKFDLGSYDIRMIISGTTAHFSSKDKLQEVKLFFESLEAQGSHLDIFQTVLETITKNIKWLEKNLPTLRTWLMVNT
With `COCC(=O)N1[C@@H]2c3ccc(/C=C/c4ccccc4)c(=O)n3C[C@H]1[C@H](CO)[C@H]2C(=O)N1CCOCC1` the AC200 was 1500 nM.
`Cc1c(-c2ccccc2)c(=O)oc2cc(O)ccc12` was tested, and the AC200 was 2340 nM.
Compound `Cc1cc(=O)oc2c(CN3CCCC3)c(O)c(Cl)cc12` has an AC200 of 1400 nM.
For `COc1ccc(C2=NN(c3ccc(C(=O)O)cc3)C(c3ccc(OC)c(OC)c3)C2)cc1` (stereo not given), the AC200 was 1580 nM.
With `COc1cccc(CN(C)Cc2cc(=O)oc3cc(O)c(Cl)cc23)c1` the AC200 was 1620 nM.
Work on `Cc1cc(=O)oc2cc(NS(=O)(=O)c3ccc(F)cc3)ccc12` yielded an AC200 of 2110 nM.
In the case of `O=c1oc2c(CN3CCN(CCO)CC3)c(O)ccc2cc1-c1ccccn1`, the AC200 was 606 nM.
`CCCN1[C@@H]2Cn3c(ccc(/C=C/c4ccccc4)c3=O)[C@H]1[C@@H](C(=O)NCc1ccccn1)[C@@H]2CO` gave an AC200 of 2260 nM.
Compound `CCc1c(C)c2cc(Cl)c(O)c(CN(C)C)c2oc1=O` has an AC200 of 803 nM.
`CCN(CC)Cc1c(O)ccc2cc(-c3nc4ccccc4n3C)c(=O)oc12` was tested, and the AC200 was 436 nM.
In the case of `COC(=O)[C@@H]1[C@@H](CO)[C@@H]2Cn3c(ccc(/C=C/c4ccccc4)c3=O)[C@H]1N2C(=O)C1CCC1`, the AC200 was 2170 nM.
With `COc1ccc(CNCc2c(O)c(Cl)cc3c(C)c(C)c(=O)oc23)c(OC)c1` the AC200 was 1030 nM.
`Cc1c(CC(=O)N2CCN(C(=O)C3COc4ccccc4O3)CC2)c(=O)oc2cc(O)c(Cl)cc12` (stereo not given) was tested, and the AC200 was 1520 nM.
For `CCN1[C@@H]2c3ccc(/C=C/c4ccccc4)c(=O)n3C[C@H]1[C@H](CO)[C@H]2C(=O)N1CCOCC1`, the AC200 was 3520 nM.
Work on `COC(=O)Cc1c(C)c2ccc(O)c(CNCc3ccc(OC)c(OC)c3)c2oc1=O` yielded an AC200 of 1010 nM.
For `O=S(=O)(O)c1ccc(N2N=C(c3ccccc3)CC2c2ccccc2)cc1` (stereo not given), the AC200 was 2050 nM.
For `Cc1c(O)ccc2cc(S(=O)(=O)c3ccccc3)c(=O)oc12`, the AC200 was 860 nM.
`CC(=O)N1[C@@H]2Cn3c(ccc(/C=C/c4ccccc4)c3=O)[C@H]1[C@@H](C(=O)NCC1CC1)[C@@H]2CO` was tested, and the AC200 was 2500 nM.
With `CC1CN(Cc2cc(=O)oc3cc(O)c(Cl)cc23)CC(C)O1` (stereo not given) the AC200 was 2520 nM.
With `O=c1ccc2cc(OC3O[C@H](CO)[C@@H](O)[C@H](O)[C@H]3O)c(O)cc2o1` (stereo not given in full) the AC200 was 857 nM.
Compound `O=C(NCc1ccccn1)[C@@H]1[C@@H](CO)[C@@H]2Cn3c(ccc(/C=C/c4ccccc4)c3=O)[C@H]1N2CC1CC1` has an AC200 of 2270 nM.
For `O=c1ccc2cc(O)c(O)cc2o1`, the AC200 was 3270 nM.
With `Cc1c(O)ccc2c(CN3CCN(Cc4ccccc4)CC3)cc(=O)oc12` the AC200 was 5190 nM.
`CC(=O)N1[C@@H]2c3ccc(/C=C/c4ccccc4)c(=O)n3C[C@H]1[C@H](CO)[C@H]2C(=O)N(C)C` showed an AC200 of 1570 nM.
With `CC(=O)N1[C@@H]2c3ccc(/C=C/c4ccccc4)c(=O)n3C[C@H]1[C@H](CO)[C@H]2C(=O)N1CCOCC1` the AC200 was 2030 nM.
`O=c1ccc2cc(O[C@@H]3O[C@H](CO)[C@@H](O)[C@H](O)[C@H]3O)c(O)cc2o1` gave an AC200 of 687 nM.
In the case of `Cc1ccc(S(=O)(=O)c2cc3ccc(O)cc3oc2=O)cc1C`, the AC200 was 721 nM.
`CCc1cc(=O)oc2c(CNCc3c(F)cccc3Cl)c(O)ccc12` was tested, and the AC200 was 1870 nM.
For `Cc1cc(=O)oc2c(CN3CCN(CCO)CC3)c(O)ccc12`, the AC200 was 3010 nM.

Same assay, conditions: recombinant ERAP2, Arg-AMC cleavage fluorescence, 1 h; at 5 µM (top of the series)
With `CCCN(C)C[C@@H]1OCCCC[C@@H](C)Oc2ccc(NS(=O)(=O)c3ccc(C)cc3)cc2C(=O)N([C@@H](C)CO)C[C@@H]1C` the activation was 6.28% (inactive).

Same assay, conditions: recombinant ERAP2, Arg-AMC cleavage fluorescence, 1 h; at 8 µM (top of the series)
`CCCN(C)C[C@@H]1OCCCC[C@@H](C)Oc2ccc(NS(=O)(=O)c3ccc(OC)cc3)cc2C(=O)N([C@H](C)CO)C[C@@H]1C` was tested, and the activation was 15.1% (inactive).

Same assay, conditions: recombinant ERAP2, Arg-AMC cleavage fluorescence, 1 h; at 10 µM (top of the series)
`Cc1noc(C)c1S(=O)(=O)N(C)C[C@@H]1OCCCC[C@@H](C)Oc2ccc(NS(=O)(=O)c3cccs3)cc2C(=O)N([C@@H](C)CO)C[C@@H]1C` was tested, and the activation was 21.7% (inactive).
With `CCCN(C)C[C@@H]1OCCCC[C@@H](C)Oc2ccc(NS(=O)(=O)c3ccc(C)cc3)cc2C(=O)N([C@H](C)CO)C[C@@H]1C` the activation was 6.04% (inactive).
`Cc1noc(C)c1S(=O)(=O)Nc1ccc2c(c1)C(=O)N([C@H](C)CO)C[C@H](C)[C@H](CN(C)Cc1ccc3c(c1)OCO3)OCCCC[C@@H](C)O2` was tested, and the activation was 11.2% (inactive).

Same assay, conditions: recombinant ERAP2, Arg-AMC cleavage fluorescence, 1 h; at 11 µM (top of the series)
In the case of `C[C@@H]1CCCCO[C@@H](CN(C)Cc2ccc(C(=O)O)cc2)[C@H](C)CN([C@@H](C)CO)C(=O)c2cc(NS(=O)(=O)c3ccc(Cl)cc3)ccc2O1`, the activation was 24.2% (inactive).
In the case of `O=C(O)c1cccc(NC(=O)c2ccccc2NC(=O)c2cccc([N+](=O)[O-])c2)c1`, the activation was 15.7% (inactive).
For `O=C(O)c1ccccc1NS(=O)(=O)c1cccc(-n2sc3ccccc3c2=O)c1`, the activation was 3.47% (inactive).
`O=C(CSc1cn[nH]n1)Nc1cccc(C(=O)O)c1` was tested, and the activation was 13.8% (inactive).
With `CCCN(C)C[C@@H]1OCCCC[C@@H](C)Oc2ccc(NS(=O)(=O)c3ccc(F)cc3)cc2C(=O)N([C@H](C)CO)C[C@@H]1C` the activation was 10.6% (inactive).
With `COc1ccc(NC(=O)Nc2cccc3c2O[C@H](CN(C)Cc2ccc(C(=O)O)cc2)[C@H](C)CN([C@H](C)CO)C3=O)cc1` the activation was 15.1% (inactive).
With `CC(=O)N1CCN(C(=O)C2(NC(=O)Nc3ccc(C)cc3)CCCCC2)CC1` the activation was 2.05% (inactive).
With `O=C(C[C@H]1CC[C@@H]2[C@H](COC[C@@H](O)CN2C(=O)Nc2cccc(Cl)c2)O1)N1CCCCC1` the activation was 32.4% (inactive).
For `C[C@@H]1CCCCO[C@H](CN(C)Cc2ccc(C(=O)O)cc2)[C@H](C)CN([C@@H](C)CO)C(=O)c2cc(NC(=O)Nc3ccc(C(F)(F)F)cc3)ccc2O1`, the activation was 11.3% (inactive).
With `C[C@@H]1CCCCO[C@@H](CN(C)Cc2ccc(C(=O)O)cc2)[C@@H](C)CN([C@H](C)CO)C(=O)c2cc(NC(=O)Nc3cccc4ccccc34)ccc2O1` the activation was 5.34% (inactive).
For `CCCNC(=O)C[C@H]1CC[C@@H]2[C@H](COC[C@H](O)CN2C(=O)Nc2cccc(Cl)c2)O1`, the activation was 19.4% (inactive).
`Cc1ccccc1-c1ccc2c(c1)O[C@@H](CN(C)Cc1ccc(C(=O)O)cc1)[C@@H](C)CN([C@H](C)CO)S2(=O)=O` was tested, and the activation was 8.67% (inactive).
`C[C@H]1CN([C@@H](C)CO)C(=O)c2cccc(NC(=O)Nc3ccc(F)cc3)c2O[C@@H]1CN(C)C(=O)Nc1ccc2c(c1)OCO2` was tested, and the activation was 18.2% (inactive).
In the case of `C[C@H]1CN([C@@H](C)CO)C(=O)c2cccc(NC(=O)Nc3ccc(C(F)(F)F)cc3)c2O[C@@H]1CN(C)C`, the activation was 2.76% (inactive).
For `C[C@@H]1CCCCO[C@H](CN(C)Cc2ccccc2)[C@H](C)CN([C@H](C)CO)C(=O)c2cc(NS(=O)(=O)c3ccccc3)ccc2O1`, the activation was 22.4% (inactive).
`COc1ccc(CN(C)C[C@H]2OCCCC[C@@H](C)Oc3ccc(NS(=O)(=O)c4cccs4)cc3C(=O)N([C@H](C)CO)C[C@H]2C)cc1` was tested, and the activation was 3.67% (inactive).
`C[C@H](CO)N1C[C@H](C)[C@@H](CN(C)CC2CC2)Oc2c(NC(=O)Nc3ccc(C(F)(F)F)cc3)cccc2C1=O` was tested, and the activation was -20.2% (inactive).
With `COc1ccc(C(=O)O)cc1S(=O)(=O)Nc1cc(C(F)(F)F)ccc1N1CCCCC1` the activation was 8.35% (inactive).
For `O=C(C[C@H]1CC[C@H]2[C@@H](COC[C@@H](O)CN2C(=O)Nc2cccc(Cl)c2)O1)N1CCCCC1`, the activation was 8.71% (inactive).
In the case of `CNC[C@H]1OCCCC[C@@H](C)Oc2ccc(NS(=O)(=O)c3ccc(C)cc3)cc2C(=O)N([C@@H](C)CO)C[C@H]1C`, the activation was 1.54% (inactive).
In the case of `COc1ccc(CN(C)C[C@@H]2OCCCC[C@H](C)Oc3ccc(NS(=O)(=O)c4cccs4)cc3C(=O)N([C@H](C)CO)C[C@@H]2C)cc1`, the activation was 10.2% (inactive).
For `O=C(C[C@@H]1CC[C@@H]2[C@H](COC[C@H](O)CN2C(=O)Nc2cccc(Cl)c2)O1)N1CCCCC1`, the activation was 2.69% (inactive).
`COc1ccc(CN(C)C[C@H]2OCCCC[C@@H](C)Oc3ccc(NS(=O)(=O)c4cccs4)cc3C(=O)N([C@@H](C)CO)C[C@H]2C)cc1` was tested, and the activation was 2.79% (inactive).
`C[C@@H]1CN([C@H](C)CO)C(=O)c2cccc(NC(=O)Nc3ccccc3)c2O[C@@H]1CN(C)Cc1ccc(C(=O)O)cc1` was tested, and the activation was 23.3% (inactive).
`Cc1noc(C)c1NC(=O)N(C)C[C@@H]1Oc2c(NC(=O)Nc3ccc(F)cc3)cccc2C(=O)N([C@H](C)CO)C[C@@H]1C` was tested, and the activation was 18.4% (inactive).
`C[C@H](CO)N1C[C@H](C)[C@H](CN(C)Cc2ccc(C(=O)O)cc2)Oc2c(NC(=O)Nc3ccccc3)cccc2C1=O` was tested, and the activation was 22.8% (inactive).
For `Cc1noc(C)c1S(=O)(=O)Nc1ccc2c(c1)C(=O)N([C@H](C)CO)C[C@@H](C)[C@@H](CN(C)CC1CCCCC1)OCCCC[C@@H](C)O2`, the activation was 1.44% (inactive).
In the case of `C[C@@H]1CCCCO[C@@H](CN(C)CC2CC2)[C@@H](C)CN([C@H](C)CO)C(=O)c2cc(NS(=O)(=O)c3cccs3)ccc2O1`, the activation was 14.7% (inactive).
With `C[C@@H]1CCCCO[C@H](CN(C)Cc2ccc(C(=O)O)cc2)[C@@H](C)CN([C@H](C)CO)C(=O)c2cc(NC(=O)Nc3ccc(C(F)(F)F)cc3)ccc2O1` the activation was 2.62% (inactive).
`C[C@@H]1CN([C@H](C)CO)C(=O)c2cc(NC(=O)Nc3ccc(F)cc3)ccc2O[C@H]1CN(C)Cc1ccc(C(=O)O)cc1` was tested, and the activation was 1.24% (inactive).
For `COC(=O)[C@H]1[C@H](CO)[C@H]2Cn3c(ccc(-c4ccncc4)c3=O)[C@H]2N1Cc1ccccc1F`, the activation was 15.2% (inactive).
For `CCCN(C)C[C@@H]1OCCCC[C@H](C)Oc2ccc(NC(=O)Nc3ccc(F)cc3)cc2C(=O)N([C@H](C)CO)C[C@@H]1C`, the activation was 10.8% (inactive).
`COc1ccc(NC(=O)Nc2ccc3c(c2)C(=O)N([C@H](C)CO)C[C@@H](C)[C@H](CN(C)Cc2ccc(C(=O)O)cc2)OCCCC[C@@H](C)O3)cc1` was tested, and the activation was 12.3% (inactive).
`CCC(=O)N(C)C[C@H]1Oc2ncc(C#Cc3ccncc3)cc2C(=O)N([C@H](C)CO)C[C@H]1C` was tested, and the activation was -5.99% (inactive).
With `COc1ccc(CN(C)C[C@@H]2OCCCC[C@H](C)Oc3ccc(NS(=O)(=O)c4cccs4)cc3C(=O)N([C@@H](C)CO)C[C@@H]2C)cc1` the activation was 20.4% (inactive).
In the case of `C[C@H](CO)N1C[C@H](C)[C@H](CN(C)Cc2ccncc2)Oc2c(NC(=O)Nc3ccc(C(F)(F)F)cc3)cccc2C1=O`, the activation was 4.68% (inactive).
